The structures appear in SMILES notation.

We go through 23 molecules from US8273774B2, “Phenoxypyridinylamide compounds” (AstraZeneca AB, priority 2008, dated 2012).

Chain of recombinant Human Phosphodiesterase B2 (PDE4B2) (Q07343 1-564 isoform Q07343-2): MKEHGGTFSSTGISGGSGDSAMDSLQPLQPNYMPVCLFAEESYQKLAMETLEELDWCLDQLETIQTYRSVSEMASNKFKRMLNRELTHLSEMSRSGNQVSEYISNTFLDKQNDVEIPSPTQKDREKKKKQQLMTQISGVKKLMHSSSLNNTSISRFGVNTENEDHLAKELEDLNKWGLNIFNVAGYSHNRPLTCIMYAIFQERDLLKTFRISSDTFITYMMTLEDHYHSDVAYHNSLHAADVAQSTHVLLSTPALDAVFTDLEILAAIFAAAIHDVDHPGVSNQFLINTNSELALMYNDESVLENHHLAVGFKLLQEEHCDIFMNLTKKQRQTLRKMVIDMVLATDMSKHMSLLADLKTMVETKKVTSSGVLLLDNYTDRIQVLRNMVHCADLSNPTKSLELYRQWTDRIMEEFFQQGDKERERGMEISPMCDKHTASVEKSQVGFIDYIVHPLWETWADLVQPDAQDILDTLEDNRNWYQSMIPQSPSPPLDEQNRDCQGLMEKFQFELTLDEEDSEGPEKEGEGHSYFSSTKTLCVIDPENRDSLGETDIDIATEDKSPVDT

This test concerns the target recombinant Human Phosphodiesterase B2 (PDE4B2) (Homo sapiens, UniProt Q07343). Description: Human Phosphodiesterase B2 Radiometric Assay. Particulars: 0.1 μg/mL recombinant PDE4B2; preincubated at 30 C for 30 min; [3H]cyclic AMP 8 nM, stopped after 20 min; yttrium silicate SPA beads; read-out: PDE4B2 pIC50 (converted). In kind it is biochemical. The method in brief: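 SPA read-out: product 5′AMP binds yttrium silicate beads (added with 18 mM ZnSO4 after 20 min) in preference to [3H]cAMP substrate, given at 8 nM final.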
Take `Cc1cc(C(=O)N[C@H]2CC[C@@H](NC(=O)c3cc(F)cnc3Oc3cccc(-c4ccc(CN5CCN(C(C)C)CC5)cc4CN4CCOCC4)c3)CC2)nn1C` [Example 183, N-((1s,4s)-4-(1,5-Dimethyl-1H-pyrazole-3-carboxamido)cyclohexyl)-5-fluoro-2-(4′-((4-isopropylpiperazin-1-yl)methyl)-2′-(morpholinomethyl)biphenyl-3-yloxy)nicotinamide]: the IC50 is 200 pM.
Take `Cc1cc(C(=O)N[C@H]2CC[C@@H](NC(=O)c3cc(F)cnc3Oc3cccc(-c4ccc(CCN5CCCN(C)CC5)cc4)c3)CC2)nn1C` [Example 166, N-((1s,4s)-4-(1,5-Dimethyl-1H-pyrazole-3-carboxamido)cyclohexyl)-5-fluoro-2-(4′-(2-(4-methyl-1,4-diazepan-1-yl)ethyl)biphenyl-3-yloxy)nicotinamide]: the IC50 was 39.8 pM.
The figure for `Cc1nc(C(=O)N[C@H]2CC[C@@H](NC(=O)c3cc(F)cnc3Oc3cccc(-c4ccc(CN5CCCN(C)CC5)cc4)c3)CC2)cs1` [Example 60, N-((1s,4s)-4-(5-fluoro-2-(4′-((4-methyl-1,4-diazepan-1-yl)methyl)biphenyl-3-yloxy)nicotinamido)cyclohexyl)-2-methylthiazole-4-carboxamide] is 50.1 pM.
The figure for `O=C(N[C@H]1CC[C@@H](NC(=O)c2cc(F)cnc2Oc2cccc(-c3ccc(CCCN4CCNCC4)cc3)c2)CC1)c1cn2cc(F)ccc2n1` [Example 121, 6-fluoro-N-((1s,4s)-4-(5-fluoro-2-(4′-(3-(piperazin-1-yl)propyl)biphenyl-3-yloxy)nicotinamido)cyclohexyl)imidazo[1,2-a]pyridine-2-carboxamide] is 63.1 pM; for `Cn1nc(C(=O)N[C@H]2CC[C@@H](NC(=O)c3cc(F)cnc3Oc3cccc(-c4ccc(CCCN5CCNCC5)cc4)c3)CC2)cc1C(F)(F)F` [Example 160, 5-Fluoro-N-((1s,4s)-4-(1-methyl-5-(trifluoromethyl)-1H-pyrazole-3-carboxamido)cyclohexyl)-2-(4′-(3-(piperazin-1-yl)propyl)biphenyl-3-yloxy)nicotinamide] it is 10 pM.
The figure for `CC(C)c1ncc(C(=O)N[C@H]2CC[C@@H](NC(=O)c3cc(F)cnc3Oc3cccc(-c4ccc(O)cc4CN4CCOCC4)c3)CC2)s1` [Example 37, N-((1s,4s)-4-(5-fluoro-2-(4′-hydroxy-2′-(morpholinomethyl)biphenyl-3-yloxy)nicotinamido)cyclohexyl)-2-isopropylthiazole-5-carboxamide] is 200 pM.
Consider `C[C@@H]1CN(Cc2ccc(-c3cccc(Oc4ncc(F)cc4C(=O)N[C@H]4CC[C@@H](NC(=O)c5cccc6cccnc56)CC4)c3)c(CN3CCOCC3)c2)C[C@H](C)N1` [Example 146, N-((1s,4s)-4-(2-(4′-(((3S,5R)-3,5-dimethylpiperazin-1-yl)methyl)-2′-(morpholinomethyl)biphenyl-3-yloxy)-5-fluoronicotinamido)cyclohexyl)quinoline-8-carboxamide], for which the IC50 is 31.6 pM.
The figure for `Cc1cccc2nc(C(=O)N[C@H]3CC[C@@H](NC(=O)c4cc(F)cnc4Oc4cccc(-c5ccc(CCCN6CCNCC6)cc5)c4)CC3)cn12` [Example 93, N-((1s,4s)-4-(5-fluoro-2-(4′-(3-(piperazin-1-yl)propyl)biphenyl-3-yloxy)nicotinamido)cyclohexyl)-5-methylimidazo[1,2-a]pyridine-2-carboxamide] is 100 pM; for `O=C(N[C@H]1CC[C@@H](NC(=O)c2cc(F)cnc2Oc2cccc(-c3ccc(CCCN4CCNCC4)cc3)c2)CC1)c1cc2ccccn2n1` [Example 132, N-((1s,4s)-4-(5-fluoro-2-(4′-(3-(piperazin-1-yl)propyl)biphenyl-3-yloxy)nicotinamido)cyclohexyl)pyrazolo[1,5-a]pyridine-2-carboxamide] it is 39.8 pM; for `Cc1ccc(O)c(C(=O)N[C@H]2CC[C@@H](NC(=O)c3cc(F)cnc3Oc3cccc(-c4ccc(O)c(CN5C[C@@H](C)N[C@@H](C)C5)c4)c3)CC2)c1` [Example 95, 2-(3′-(((3S,5R)-3,5-dimethylpiperazin-1-yl)methyl)-4′-hydroxybiphenyl-3-yloxy)-5-fluoro-N-((1s,4s)-4-(2-hydroxy-5-methylbenzamido)cyclohexyl)nicotinamide] it is 200 pM.
The figure for `Cc1cc(C(=O)N[C@H]2CC[C@@H](NC(=O)c3cc(F)cnc3Oc3cccc(-c4ccc(CCN5C[C@@H](C)N[C@@H](C)C5)cc4)c3)CC2)nn1C` [Example 82, N-((1s,4s)-4-(1,5-dimethyl-1H-pyrazole-3-carboxamido)cyclohexyl)-2-(4′-(2-((3S,5R)-3,5-dimethylpiperazin-1-yl)ethyl)biphenyl-3-yloxy)-5-fluoronicotinamide] is 20 pM.
Under `Cc1cc(C(=O)N[C@H]2CC[C@@H](NC(=O)c3cc(F)cnc3Oc3cccc(-c4cccc(CCN5CCNCC5)c4)c3)CC2)nn1C` [Example 102, N-((1s,4s)-4-(1,5-dimethyl-1H-pyrazole-3-carboxamido)cyclohexyl)-5-fluoro-2-(3′-(2-(piperazin-1-yl)ethyl)biphenyl-3-yloxy)nicotinamide] stands 39.8 pM; under `Cc1cccc2nc(C(=O)N[C@H]3CC[C@@H](NC(=O)c4cc(F)cnc4Oc4cccc(-c5ccc(CN6CCCOCC6)cc5)c4)CC3)cn12` [Example 46, N-((1s,4s)-4-(2-(4′-((1,4-oxazepan-4-yl)methyl)biphenyl-3-yloxy)-5-fluoronicotinamido)cyclohexyl)-5-methylimidazo[1,2-a]pyridine-2-carboxamide], 126 pM.
In the case of `Cc1cc(C(=O)N[C@H]2CC[C@@H](NC(=O)c3cc(F)cnc3Oc3cccc(-c4ccc(CCCN5CCN(C)CC5)cc4)c3)CC2)nn1C` [Example 80, N-((1s,4s)-4-(1,5-dimethyl-1H-pyrazole-3-carboxamido)cyclohexyl)-5-fluoro-2-(4′-(3-(4-methylpiperazin-1-yl)propyl)biphenyl-3-yloxy)nicotinamide], the IC50 was 39.8 pM.
In the case of `C[C@@H]1CN(CCCc2ccc(-c3cccc(Oc4ncc(F)cc4C(=O)N[C@H]4CC[C@@H](NC(=O)c5nc(CO)cs5)CC4)c3)cc2)C[C@H](C)N1` [Example 150, N-((1s,4s)-4-(2-(4′-(3-((3S,5R)-3,5-dimethylpiperazin-1-yl)propyl)biphenyl-3-yloxy)-5-fluoronicotinamido)cyclohexyl)-4-(hydroxymethyl)thiazole-2-carboxamide], the IC50 is 79.4 pM.
The figure for `Cc1cccc(C(=O)N[C@H]2CC[C@@H](NC(=O)c3cc(F)cnc3Oc3cccc(-c4ccc(CCCNCCCO)cc4)c3)CC2)n1` [Example 158, N-((1s,4s)-4-(5-Fluoro-2-(4′-(3-(3-hydroxypropylamino)propyl)biphenyl-3-yloxy)nicotinamido)cyclohexyl)-6-methylpicolinamide] is 31.6 pM; for `O=C(N[C@H]1CC[C@@H](NC(=O)c2cc(F)cnc2Oc2cccc(-c3ccc(O)cc3CN3CCOCC3)c2)CC1)c1ccccc1O` [Example 38, 5-fluoro-2-(4′-hydroxy-2′-(morpholinomethyl)biphenyl-3-yloxy)-N-((1s,4s)-4-(2-hydroxybenzamido)cyclohexyl)nicotinamide] it is 39.8 pM.
Under `C[C@@H]1CN(CCCc2ccc(-c3cccc(Oc4ncc(F)cc4C(=O)N[C@H]4CC[C@@H](NC(=O)c5ccn(C)n5)CC4)c3)cc2)C[C@H](C)N1` [Example 165, 2-(4′-(3-((3S,5R)-3,5-Dimethylpiperazin-1-yl)propyl)biphenyl-3-yloxy)-5-fluoro-N-((1s,4s)-4-(1-methyl-1H-pyrazole-3-carboxamido)cyclohexyl)nicotinamide] stands 63.1 pM; under `CN(C)C1(C(=O)NC2CCC(NC(=O)c3cc(F)cnc3Oc3cccc(-c4ccc(O)cc4CN4CCOCC4)c3)CC2)CC1` (centres unmarked) [Example 17, N-((1s,4s)-4-(1-(dimethylamino)cyclopropanecarboxamido)cyclohexyl)-5-fluoro-2-(4′-hydroxy-2′-(morpholinomethyl)biphenyl-3-yloxy)nicotinamide], 1580 pM; under `O=C(NC1CCC(NC(=O)c2cc(F)cnc2Oc2cccc(-c3ccc(CCCN4CCNCC4)cc3)c2)CC1)c1nc(CO)cs1` (centres unmarked) [Example 187, N-((1s,4s)-4-(5-Fluoro-2-(4′-(3-(piperazin-1-yl)propyl)biphenyl-3-yloxy)nicotinamido)cyclohexyl)-4-(hydroxymethyl)thiazole-2-carboxamide], 200 pM.
As for `Cc1nc(C(=O)N[C@H]2CC[C@@H](NC(=O)c3cc(F)cnc3Oc3cccc(-c4ccc(O)cc4CN4CCN(C(C)C)CC4)c3)CC2)cs1` [Example 25, N-((1s,4s)-4-(5-fluoro-2-(4′-hydroxy-2′-((4-isopropylpiperazin-1-yl)methyl)biphenyl-3-yloxy)nicotinamido)cyclohexyl)-2-methylthiazole-4-carboxamide], the IC50 is 3160 pM.
Under `Cc1cc(C)n2ncc(C(=O)N[C@H]3CC[C@@H](NC(=O)c4cc(F)cnc4Oc4cccc(-c5ccc(CN6C[C@@H](C)N[C@@H](C)C6)cc5CN5CCOC[C@@H]5C)c4)CC3)c2n1` [Example 196, N-((1s,4s)-4-(2-(4′-(((3S,5R)-3,5-dimethylpiperazin-1-yl)methyl)-2′-(((S)-3-methylmorpholino)methyl)biphenyl-3-yloxy)-5-fluoronicotinamido)cyclohexyl)-5,7-dimethylpyrazolo[1,5-a]pyrimidine-3-carboxamide] stands 25.1 pM.
The figure for `Cc1csc(C(=O)N[C@H]2CC[C@@H](NC(=O)c3cc(F)cnc3Oc3cccc(-c4ccc(CN5C[C@@H](C)N[C@@H](C)C5)cc4CN4CCSCC4)c3)CC2)n1` [Example 192, N-((1s,4s)-4-(2-(4′-(((3S,5R)-3,5-dimethylpiperazin-1-yl)methyl)-2′-(thiomorpholinomethyl)biphenyl-3-yloxy)-5-fluoronicotinamido)cyclohexyl)-4-methylthiazole-2-carboxamide] is 20 pM.
